We go through nine compounds from ChEMBL document CHEMBL1139619, “Exploiting a basic chemosensitizing pharmacophore hypothesis. Part 1: synthesis and biological evaluation of novel arylbromide and bicyclic chemosensitizers against drug-resistant malaria parasites” (Bioorg Med Chem Lett, 2005).

Broadly, the IC50 is the concentration at which inhibition is half-maximal. Usually IC90 stands for the concentration at which the effect reaches the 90% level.

Assay [1] concerns Plasmodium falciparum. Kind of assay: (§1) In vitro inhibitory concentration against chloroquine-enhancing Plasmodium falciparum FCM29 at 1.5 ug/mL. Type of assay: functional, organism-based.
The subject of assay [2] is Plasmodium falciparum. As to the kind of experiment: (§2) In vitro inhibitory concentration against Plasmodium falciparum FCM29. In kind it is functional, organism-based.
The subject of assay [3] is Plasmodium falciparum. The description is as §2. Type of assay: functional.
Assay [4] concerns Plasmodium falciparum. Kind of assay: In vitro inhibitory concentration against Plasmodium falciparum FCM29 at 1.5 ug/mL. Type of assay: functional.
Assay [5] concerns Plasmodium falciparum. Kind of assay: In vitro inhibitory concentration against chloroquine-enhancing Plasmodium falciparum FCM29 at 0.75 ug/mL. In kind it is functional.
Assay [6] deals with Plasmodium falciparum. As to the kind of experiment: In vitro inhibitory concentration chloroquine-enhancing against Plasmodium falciparum FCM29 at 0.375 ug/mL. In kind it is functional.
The subject of assay [7] is Plasmodium falciparum. As to the kind of experiment: In vitro inhibitory concentration chloroquine-enhancing against chloroquine-enhancing Plasmodium falciparum FCM29 at 0.75 ug/mL. In kind it is functional, organism-based.
The test system of assay [8] is Plasmodium falciparum. As to the kind of experiment: (§3) In vitro inhibitory concentration against chloroquine-enhancing Plasmodium falciparum FCM29 at 0.6 ug/mL. Type of assay: functional, organism-based.
Assay [9] deals with Plasmodium falciparum. Kind of assay: In vitro inhibition against Plasmodium falciparum FCM29 at 0.3 ug/mL. Type of assay: functional, organism-based.
For assay [10], the system named is Plasmodium falciparum. As to the kind of experiment: In vitro inhibitory concentration against Plasmodium falciparum FCM29 at 0.3 ug/mL. In kind it is functional.
Assay [11] relates to Plasmodium falciparum. Described as §3. Type of assay: functional.
The test system of assay [12] is Plasmodium falciparum. Kind of assay: In vitro inhibition against Plasmodium falciparum FCM29 at 0.68 ug/mL. Type of assay: functional, organism-based.
For assay [13], the system named is Plasmodium falciparum. Kind of assay: In vitro inhibitory concentration against Plasmodium falciparum FCM29 at 0.68 ug/mL. In kind it is functional.
For assay [14], the system named is Plasmodium falciparum. Kind of assay: (§4) In vitro inhibitory concentration against chloroquine-enhancing Plasmodium falciparum FCM29 at 1.36 ug/mL. In kind it is functional.
Assay [15] deals with Plasmodium falciparum. The assay is described as §4. Type of assay: functional, organism-based.
Assay [16] has as its system Plasmodium falciparum. As to the kind of experiment: (§5) In vitro inhibitory concentration against chloroquine-enhancing Plasmodium falciparum FCM29 at 0.5 ug/mL. In kind it is functional, organism-based.
In assay [17] the test system is Plasmodium falciparum. Kind of assay: (§6) In vitro inhibitory concentration against chloroquine-enhancing Plasmodium falciparum FCM29 at 2 ug/mL. Type of assay: functional, organism-based.
Assay [18] deals with Plasmodium falciparum. The description is as §6. In kind it is functional.
Assay [19] has as its system Plasmodium falciparum. Kind of assay: (§7) In vitro inhibitory concentration against Plasmodium falciparum FCM29 at 1 ug/mL. Type of assay: functional, organism-based.
Assay [20] deals with Plasmodium falciparum. As to the kind of experiment: In vitro inhibition against Plasmodium falciparum FCM29 at 2 ug/mL. Type of assay: functional, organism-based.
In assay [21] the test system is Plasmodium falciparum. As to the kind of experiment: In vitro inhibition against Plasmodium falciparum FCM29 at 4 ug/mL. Type of assay: functional, organism-based.
The test system of assay [22] is Plasmodium falciparum. Described as §7. In kind it is functional.
Assay [23] relates to Plasmodium falciparum. As to the kind of experiment: In vitro inhibitory concentration against Plasmodium falciparum FCM29 at 2 ug/mL. Type of assay: functional.
Assay [24] deals with Plasmodium falciparum. As to the kind of experiment: In vitro inhibitory concentration against Plasmodium falciparum FCM29 at 4 ug/mL. Type of assay: functional.
Assay [25] concerns Plasmodium falciparum. Described as §5. Type of assay: functional.
Assay [26] has as its system Plasmodium falciparum. Kind of assay: In vitro inhibition against Plasmodium falciparum FCM29 at 3 ug/mL. In kind it is functional, organism-based.
The test system of assay [27] is Plasmodium falciparum. As to the kind of experiment: In vitro inhibitory concentration against Plasmodium falciparum FCM29 at 3 ug/mL. Type of assay: functional.
In assay [28] the test system is Plasmodium falciparum. Described as §1. Type of assay: functional.
The test system of assay [29] is Plasmodium falciparum. As to the kind of experiment: (§8) In vitro inhibitory concentration against chloroquine-enhancing Plasmodium falciparum FCM29 at 2.5 ug/mL. In kind it is functional, organism-based.
Assay [30] concerns Plasmodium falciparum. Kind of assay: In vitro inhibition against Plasmodium falciparum FCM29 at 0.62 ug/mL. In kind it is functional, organism-based.
Assay [31] concerns Plasmodium falciparum. Kind of assay: (§9) In vitro inhibitory concentration against chloroquine-enhancing Plasmodium falciparum FCM29 at 5 ug/mL. In kind it is functional, organism-based.
The subject of assay [32] is Plasmodium falciparum. As to the kind of experiment: In vitro inhibitory concentration against Plasmodium falciparum FCM29 at 0.62 ug/mL. Type of assay: functional.
Assay [33] relates to Plasmodium falciparum. The assay is described as §8. In kind it is functional.
Assay [34] has as its system Plasmodium falciparum. As to the kind of experiment: (§10) In vitro inhibitory concentration against chloroquine-enhancing Plasmodium falciparum FCM29 at 1.25 ug/mL. Type of assay: functional.
Assay [35] has as its system Plasmodium falciparum. Described as §10. In kind it is functional, organism-based.
For assay [36], the system named is Plasmodium falciparum. Described as §9. Type of assay: functional.
Assay [37] deals with Plasmodium falciparum. Kind of assay: In vitro inhibitory concentration against chloroquine-enhancing Plasmodium falciparum FCM29 at.62 ug/mL. Type of assay: functional, organism-based.
Assay [38] relates to Plasmodium falciparum. As to the kind of experiment: In vitro inhibitory concentration against chloroquine-enhancing Plasmodium falciparum FCM29 at2.50 ug/mL. In kind it is functional.
In assay [39] the test system is Plasmodium falciparum. Kind of assay: In vitro inhibitory concentration against chloroquine-enhancing Plasmodium falciparum FCM29 at 2.50 ug/mL. In kind it is functional, organism-based.
The nature of assay [40]: In vitro inhibitory concentration against chloroquine-enhancing Plasmodium falciparum FCM29 @ concentration of 1 ug/mL. Type of assay: functional.
Assay [41] is described as follows: (§11) In vitro inhibitory concentration against Plasmodium falciparum FCM29 @ concentration of 00 ug/mL. In kind it is functional.
The test system of assay [42] is Plasmodium falciparum. Described as §11. In kind it is functional.
In assay [43] the test system is Plasmodium falciparum. As to the kind of experiment: In vitro inhibitory concentration against Plasmodium falciparum FCM29 @ concentration of 0.5 ug/mL. In kind it is functional.
Assay [44] is described as follows: In vitro inhibitory concentration against chloroquine-enhancing Plasmodium falciparum FCM29 @ concentration of 00 ug/mL. Type of assay: functional.
Assay [45] concerns Plasmodium falciparum. As to the kind of experiment: (§12) In vitro inhibitory concentration against chloroquine-enhancing Plasmodium falciparum FCM29 at 3 ug/mL. Type of assay: functional, organism-based.
For assay [46], the system named is Plasmodium falciparum. The assay is described as §12. In kind it is functional.

Converted amounts (≈) assume the structure as drawn. “And” between values parts separate entries of the source, which are not always exact repeats. Equal values may be shown once.

For `CCN(CC)CCCNc1ccc(-c2ccccc2)cc1`, the IC50 worked out at 25.9 nM in the assay with Plasmodium falciparum [1], 2.9 µg/mL (≈ 10.3 µM) in the assay with Plasmodium falciparum [2] and 54 nM in the assay on Plasmodium falciparum [7]. Besides, the concentration for an effect of 90% (IC90) with Plasmodium falciparum [3] is 18.5 µg/mL (≈ 65.5 µM); in the assay on Plasmodium falciparum [4] it was 114 nM; with Plasmodium falciparum [5] it was 198 nM; in the assay with Plasmodium falciparum [6], 98.2 nM and 368 nM.
Turning to `CCN(CC)CCCOc1ccc(-c2ccccc2)cc1`, the IC50 in the assay with Plasmodium falciparum [8] was 101 nM; in the assay on Plasmodium falciparum [9] it was 169 nM; in the assay with Plasmodium falciparum [2] it was 1.7 µg/mL (≈ 6 µM). Further, the 90% effect concentration (IC90) with Plasmodium falciparum [3] stood at 24.4 µg/mL (≈ 86.1 µM); with Plasmodium falciparum [10], 655 nM; in the assay on Plasmodium falciparum [11], 311 nM.
Consider `CCN(CC)CCCNc1cccc(-c2ccccc2)c1`, for which the half-inhibitory concentration (IC50) in the assay with Plasmodium falciparum [12] turned out to be 160 nM; in the assay with Plasmodium falciparum [2], 2.3 µg/mL (≈ 8.14 µM); in the assay with Plasmodium falciparum [15], 109 nM. The 90% effect concentration (IC90) in the assay on Plasmodium falciparum [13] was 781 nM; with Plasmodium falciparum [3], 20.8 µg/mL (≈ 73.6 µM); with Plasmodium falciparum [14], 630 nM.
Consider `CCN(CC)CCCOc1cccc(-c2ccccc2)c1`, for which the concentration for half-maximal inhibition (IC50) in the assay on Plasmodium falciparum [16] worked out at 152 nM; with Plasmodium falciparum [17], 77.7 nM; with Plasmodium falciparum [2], 3.1 µg/mL (≈ 10.9 µM); with Plasmodium falciparum [19], 119 nM; in the assay with Plasmodium falciparum [19] (Plasmodium falciparum), 101 nM; with Plasmodium falciparum [20] it was 70.9 nM. It took 3.1 nM to reach half-maximal inhibition with Plasmodium falciparum [21] (IC50). In addition, the IC90 was 556 nM in the assay with Plasmodium falciparum [18]; 49.5 µg/mL (≈ 175 µM) in the assay with Plasmodium falciparum [3]; 255 nM and 745 nM in the assay on Plasmodium falciparum [22]; 205 nM in the assay on Plasmodium falciparum [23]; 73.2 nM in the assay on Plasmodium falciparum [24]; 736 nM in the assay with Plasmodium falciparum [25].
Take `CCN(CC)CCCNc1ccccc1Br`: the IC50 with Plasmodium falciparum [1] amounted to 40.3 nM; in the assay on Plasmodium falciparum [2] it was 3.7 µg/mL (≈ 13 µM); in the assay on Plasmodium falciparum [19] (Plasmodium falciparum), 58.2 nM; in the assay with Plasmodium falciparum [20], 28.8 nM; in the assay with Plasmodium falciparum [26] it was 6.1 nM. For the same compound, the IC90 with Plasmodium falciparum [22] (Plasmodium falciparum) worked out at 290 nM; in the assay with Plasmodium falciparum [23], 134 nM; with Plasmodium falciparum [27], 153 nM; in the assay with Plasmodium falciparum [28], 195 nM.
In the case of `CCN(CC)CCCNc1cccc(Br)c1`, the IC50 with Plasmodium falciparum [29] is 38.5 nM; in the assay with Plasmodium falciparum [30], 110 nM; with Plasmodium falciparum [31], 7.2 nM; with Plasmodium falciparum [2] it was 7.6 µg/mL (≈ 26.6 µM); with Plasmodium falciparum [35], 68.5 nM. The IC90 stood at 809 nM with Plasmodium falciparum [32]; 80.3 µg/mL (≈ 282 µM) in the assay with Plasmodium falciparum [3]; 443 nM in the assay on Plasmodium falciparum [33]; 392 nM in the assay on Plasmodium falciparum [34]; 210 nM in the assay with Plasmodium falciparum [36].
Turning to `CCN(CC)CCCNc1ccccc1-c1ccccc1`, the IC50 was 138 nM in the assay with Plasmodium falciparum [37], 3.1 µg/mL (≈ 11 µM) in the assay with Plasmodium falciparum [2], 72.2 nM with Plasmodium falciparum [35] and 11.5 nM with Plasmodium falciparum [39]. Further, the IC90 is 820 nM with Plasmodium falciparum [32], 94.6 µg/mL (≈ 335 µM) in the assay with Plasmodium falciparum [3], 400 nM with Plasmodium falciparum [34] and 373 nM in the assay on Plasmodium falciparum [38].
On to `CCN(CC)CCCNc1ccc(Br)cc1`, for which the IC50 turned out to be 146 nM with Plasmodium falciparum [16]; 95.9 nM in assay [40]; 161 nM in assay [41]; 6.1 µg/mL (≈ 21.4 µM) in the assay on Plasmodium falciparum [2]; 69.3 nM in the assay with Plasmodium falciparum [20]; 28.7 nM in the assay on Plasmodium falciparum [21]. Moreover, in [44], the half-inhibitory concentration (IC50) amounted to 161 nM. For the same compound, the IC90 came to 66.7 µg/mL (≈ 234 µM) in the assay with Plasmodium falciparum [3]; 272 nM in the assay on Plasmodium falciparum [23]; 273 nM in the assay with Plasmodium falciparum [24]; 843 nM with Plasmodium falciparum [42]; 745 nM in the assay on Plasmodium falciparum [43]; 745 nM with Plasmodium falciparum [25].
As to `CCN(CC)CCCOc1ccccc1-c1ccccc1`, the IC50 in the assay on Plasmodium falciparum [1] came out at 42.9 nM; in the assay with Plasmodium falciparum [17] it was 7.6 nM; with Plasmodium falciparum [45] it was 3 nM; in the assay with Plasmodium falciparum [2], 3.3 µg/mL (≈ 11.6 µM); in the assay on Plasmodium falciparum [19] (Plasmodium falciparum), 53.9 nM. Further, the IC90 in the assay with Plasmodium falciparum [18] worked out at 191 nM; in the assay with Plasmodium falciparum [46], 157 nM; in the assay with Plasmodium falciparum [3] it was 22.3 µg/mL (≈ 78.7 µM); in the assay with Plasmodium falciparum [22] (Plasmodium falciparum) it was 534 nM; in the assay with Plasmodium falciparum [28] it was 301 nM.
